Experimental findings from publication PMC4772543, “Immune responses to Mycobacterial heat shock protein 70 accompany self-reactivity to human BiP in rheumatoid arthritis” (Scientific Reports, 2016) are described below.

The subject of test [1] is HLA-DR4-positive HD PBMCs. The experiment in a line: Proliferation of healthy donor PBMCs in response to peptide (3H-thymidine uptake). The class given is cell-based, human. The following applies: HLA-DR4-positive healthy donors (SE +/− n = 10), peptide 10 μg/mL. How it is done: Figure 3 MycHSP70_287–306 was a HLA-DR4-restricted epitope in RA. (A) The proliferation of PBMCs in RA patients (Shared epitope (SE) +/+ n = 12, SE +/− n = 22, SE−/− n = 9) and HDs (SE +/− n = 10) in response to MycHSP70_287–306. Proliferation was determined by the incorporation of [3]-H thymidine. The stimulation index (SI) was calculated using the following equation: (median thymidine uptake to an antigen)/(median thymidine uptake in the absence of an antigen). Horizontal line: the median. (B) Amino acid sequences of MycHSP70 (lower lines) and human BiP (upper lines) near the epitopes. Epitope sequences are indicated in bold letters. […]
PBMCs (1 × 10^6/mL) isolated with Ficoll-Paque (GE Healthcare) were cultured in the presence or absence of each peptide (10 μg/mL) with RPMI 1640 medium supplemented with 10% human serum, 2 mM L-glutamine, 100 U/ml penicillin, and 100 μg/ml streptomycin in a humidified incubator at 37 °C, 5% CO2, for 96 hours. […] Counts per minute were measured with a scintillation counter. In some experiments, the culture supernatants were collected after a 72-hour incubation and cytokine concentrations were measured in the culture supernatants by a human IFN-γ high sensitivity ELISA kit and human IL-17 high sensitivity ELISA kit (eBioscience). […]

Test [2] concerns PBMCs of HLA-DR4-positive RA patients. The test is described as follows: Peptide-induced cytokine secretion from PBMCs (ELISA). The class given is cell-based, human. On the procedure: Figure 3 MycHSP70_287–306 was a HLA-DR4-restricted epitope in RA. (A) The proliferation of PBMCs in RA patients (Shared epitope (SE) +/+ n = 12, SE +/− n = 22, SE−/− n = 9) and HDs (SE +/− n = 10) in response to MycHSP70_287–306. Proliferation was determined by the incorporation of [3]-H thymidine. The stimulation index (SI) was calculated using the following equation: (median thymidine uptake to an antigen)/(median thymidine uptake in the absence of an antigen). Horizontal line: the median. (B) Amino acid sequences of MycHSP70 (lower lines) and human BiP (upper lines) near the epitopes. Epitope sequences are indicated in bold letters. (C) Relationship between MycHSP70_287–306-induced proliferation and BiP336–355-induced proliferation in RA PBMCs (9 patients with SE +/+ and 14 patients with SE +/−). (D) Blockade of the MycHSP287–306-induced proliferation of PBMCs from HLA-DR4-positive RA patients (n = 6) using an anti-HLA-DR antibody. (E) The secretion of MycHSP287–306-induced IFN-γ from the PBMCs of HLA-DR4-positive HDs (n = 6) and RA patients (n = 8). (F) Blockade of MycHSP287–306-induced cytokine secretion from the PBMCs of HLA-DR4-positive RA patients (n = 6) using an anti-HLA-DR antibody. *p < 0.05, **p < 0.01, ***p < 0.001.
PBMCs (1 × 10^6/mL) isolated with Ficoll-Paque (GE Healthcare) were cultured in the presence or absence of each peptide (10 μg/mL) with RPMI 1640 medium supplemented with 10% human serum, 2 mM L-glutamine, 100 U/ml penicillin, and 100 μg/ml streptomycin in a humidified incubator at 37 °C, 5% CO2, for 96 hours. Cells were incubated for 18 h following a ^3H-thymidine pulse into each well and harvested using a semiautomated sample harvester. Counts per minute were measured with a scintillation counter. In some experiments, the culture supernatants were collected after a 72-hour incubation and cytokine concentrations were measured in the culture supernatants by a human IFN-γ high sensitivity ELISA kit and human IL-17 high sensitivity ELISA kit (eBioscience). […]

The subject of test [3] is collagen-induced arthritis in DBA/1 J mice. The experiment in a line: Oral administration of peptide in collagen-induced arthritis (CIA). The class given is in vivo, mouse. How it is done:
Figure 6 Oral tolerance of MycHSP70_287–306 peptides in a collagen-induced arthritis model. (A,B) The MycHSP70_287–306 peptide or control (PBS alone) was orally administered to bovine type II collagen-immunized DBA/1 J mice after the occurrence of CIA for 5 continuous days (n = 12). Mice were sacrificed on day 35. Arthritis scores were measured by finger and paw swelling, and histological scores were measured by cell infiltration (C), pannus formation (P), and bone destruction (B). (C) Splenic CD4^+ T cell proliferation from CIA-induced DBA/1 J mice in response to a recall antigen (Ag) stimulation (MycHSP70_287–306 and BiP336–355 epitopes, and heat-denatured bovine type II collagen (BC II)). Proliferation was determined by[3]-H thymidine incorporation. (D) Serum anti-BiP and anti-BC II antibody titers were measured by ELISA. (E,F) Mouse IL-10 and TGF-beta1 concentrations in the splenic CD4^+ T cell culture were measured by ELISA. Data were representative of at least three independent trials. *p < 0.05, **p < 0.01, ***p < 0.001.
Serum antibodies were measured by ELISA as previously reported. Briefly, 96-well plates (Thermo Fisher Scientific) were coated with 5 μg/mL of each antigen and dissolved in 0.1 M NaHCO3. Diluted samples (100x) were applied, followed by goat anti-human IgG-horseradish peroxidase (HRP) (5000:1,Vector) or goat anti-mouse IgG-HRP (5000:1, Life Technologies) detection antibodies and TMB solution (KPL) for development.
CIA in the background of DBA/1 J female mice (SLC Japan) was performed and arthritis scores were acquired as previously described. In the therapeutic experiments, mice were administered 200 μg of MycHSP287–306 peptides orally for 5 continuous days following the onset of arthritis. Mice were sacrificed on day 35, and the CD4^+ T cell culture was performed as described above. Mouse cytokine concentrations in the supernatants were measured using a mouse IL-10 ELISA kit and mouse/human TGF-beta 1 ELISA kit (eBioscience) according to the manufacturer’s protocol. Tissue samples were embedded in paraffin wax after 10% formaldehyde fixation and decalcification. Sections were stained with hematoxylin and eosin. Synovial tissues were graded by mononuclear cell infiltration, pannus formation, and cartilage erosion, as described previously. All animal experiments were conducted in accordance with Institutional and National Guidelines, and the protocols were approved by the Ethical Committee on Animal Experiments of the University of Tokyo. […]
Oral tolerance of MycHSP70287-306 peptides on collagen-induced arthritis (CIA) model. The experimental protocol was the same as Figure 6.
(A)(B)Mouse IL-17 and IFN-gamma concentrations in the splenic CD4+ T cell culture was measured by ELISA (Mouse cytokine ELISA ready-set-go, eBioscience) according to the manufacture’s protocol. (C) The frequencies of splenic regulatory T cells in CIA (n=4, each). FACS analysis was performed by FACS Vantage (BD Bioscience). Cells were stained by anti-mouse CD4
APC antibody, anti-mouse CD25 FITC antibody, FOXP3 staining was performed using anti-mouse Foxp3 PE antibody (eBioscience) by using […]

Setting [4] is: peptide 10 μg/mL, supernatant after 72-hour incubation, ELISA.
Where [5] appears, read: CIA mice given peptide orally vs PBS, ELISA.

Take DRTRKPFQSVIADTGISVSE [MycHSP70_287–306]: in test [1], the “peptide-induced proliferation of HD PBMCs” value is recorded as “not observed”. For the same sequence, in test [2] (HLA-DR4-positive RA patients n = 6, anti-HLA DR antibody (L243) 10 μg/mL), the “peptide-induced IFN-γ and IL-17 secretion with anti-HLA-DR antibody” value is “blocked”. Moreover, in test [2] (setting [4]), the “secretion of interferon (IFN)-γ” value is on record as “induced” and the “secretion of interleukin (IL)-17” value is given as “induced”. In addition, the “development of arthritis (arthritis scores)” value in test [3] (200 μg peptide orally for 5 continuous days after onset of arthritis, vs PBS, n = 12, sacrificed day 35) was “significantly improved”. Also, the histological scores result in test [3] (200 μg peptide orally for 5 continuous days, cell infiltration, pannus formation, bone destruction, day 35) is “significantly improved”. In test [3] (setting [5]), the “serum anti-BC II antibody titers” value was “significantly decreased” and the “serum anti-BiP antibody titers” value is “significantly decreased”. In test [3] (splenic, CIA mice given peptide orally vs PBS, n=4 each, FACS), the “frequency of CD4+ CD25+ Foxp3+ regulatory T cells” value is “increased”.
